Active and inactive are the calls of the source. The rule behind the calls is not given here.
Key:
A2058 [1] = assay: Antiproliferative activity against human A2058 cells harbouring BRAF V600E mutant assessed as cell death at 50 uM incubated for 48 hrs by Celltiter-glo assay; assay type: functional, cell-based
[2] = molecular target: T1, Eukaryotic translation initiation factor 4E (Homo sapiens, UniProt P06730); assay: Competitive inhibition of human 10 his-tagged eIF4E extracted from Escherichia coli BL21 (DE3) cells incubated for 40 mins by fluorescence polarization assay
A2058 [3] = assay: Effect on c-Myc expression in human A2058 cells incubated for 6 hrs by Western blot analysis; assay type: functional, cell-based
A2058 [4] = assay: Antiproliferative activity against human A2058 cells harbouring BRAF V600E mutant assessed as cell death incubated for 48 hrs by Celltiter-glo assay; assay type: functional, cell-based; conditions: for EC50: A2058, 48 h; for Activity: dose 10-60 µM
A2058 [5] = assay: Downregulation of ODC1 expression in human A2058 cells incubated for 6 hrs by Western blot analysis; assay type: functional, cell-based
A2058 [6] = assay: Downregulation of CCND1 expression in human A2058 cells incubated for 6 hrs by Western blot analysis; assay type: functional, cell-based
SK-MEL-2 = assay: Antiproliferative activity against human SK-MEL-2 cells at 1.0 to 1.8 uM incubated for 48 hrs by Celltiter-glo assay; assay type: functional, cell-based; conditions: dose 1-1.8 µM
A-375 = assay: Antiproliferative activity against human A-375 cells incubated for 48 hrs by Celltiter-glo assay; assay type: functional, cell-based; conditions: A-375, 48 h
A2058 [7] = assay: Downregulation of CCND3 expression in human A2058 cells incubated for 6 hrs by Western blot analysis; assay type: functional, cell-based
[8] = molecular target: T1, Eukaryotic translation initiation factor 4E; assay: Induction of thermal stabilization of eIF4E in human HeLa cell lysates incubated for 1 hr at 42 to 52 degreeC by CETSA based Western blot analysis; assay type: subcellular

T1 sequence (P06730 whole entry): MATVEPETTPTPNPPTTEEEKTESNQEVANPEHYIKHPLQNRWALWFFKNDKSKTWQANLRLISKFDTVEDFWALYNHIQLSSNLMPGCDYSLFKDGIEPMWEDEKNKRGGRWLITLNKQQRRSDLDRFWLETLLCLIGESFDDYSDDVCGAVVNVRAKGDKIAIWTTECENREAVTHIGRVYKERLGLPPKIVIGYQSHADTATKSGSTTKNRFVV

Compound: CC(C)(C)C(=O)OCOP(=O)(CCc1cccc(-n2c[n+](Cc3cc4cc(Cl)ccc4o3)c3c(=O)[nH]c(N)nc32)c1)OCOC(=O)C(C)(C)C
- Activity (A2058 [1]): Active

Compound: Nc1nc2c(c(=O)[nH]1)[n+](Cc1cc3cc(Cl)ccc3o1)cn2Cc1ccccc1CCP(=O)(O)O
- IC50 [2]: 17.2 µM

Compound: CC(C)(C)C(=O)OCOP(=O)(CCc1cccc(Cn2c[n+](Cc3cc4cc(Cl)ccc4o3)c3c(=O)[nH]c(N)nc32)c1)OCOC(=O)C(C)(C)C
- Activity (A2058 [3]): inactive
- Activity (A2058 [1]): Active; Compound Showed Near Complete Cell Death
- EC50 (A2058 [4]): 40 µM
- Activity (A2058 [4]): Dose-dependent-effect
- Activity (A2058 [5]): Active
- Activity (A2058 [6]): Active
- Activity (SK-MEL-2): inactive
- EC50 (A-375): 54 µM
- Activity (A2058 [7]): Active

Compound: CC(C)(C)C(=O)OCOP(=O)(OCOC(=O)C(C)(C)C)c1cccc(Cn2c[n+](Cc3cc4cc(Cl)ccc4o3)c3c(=O)[nH]c(N)nc32)c1
- Activity (A2058 [1]): Active; Compound Found To Be Less Active

Compound: CC(C)(C)C(=O)OCOP(=O)(Cc1cccc(Cn2c[n+](Cc3cc4cc(Cl)ccc4o3)c3c(=O)[nH]c(N)nc32)c1)OCOC(=O)C(C)(C)C
- Activity (A2058 [1]): Active; Compound Found To Be Less Active

Compound: CC(C)(C)C(=O)OCOP(=O)(CCc1ccc(Cn2c[n+](Cc3cc4cc(Cl)ccc4o3)c3c(=O)[nH]c(N)nc32)cc1)OCOC(=O)C(C)(C)C
- Activity (A2058 [4]): inactive

Compound: Nc1nc2c(c(=O)[nH]1)[n+](Cc1cc3cc(Cl)ccc3o1)cn2Cc1cccc(CCP(=O)(O)O)c1
- Activity [8]: Active
- IC50 [2]: 4.1 µM

Compound: CC(C)(C)C(=O)OCOP(=O)(CCc1ccccc1Cn1c[n+](Cc2cc3cc(Cl)ccc3o2)c2c(=O)[nH]c(N)nc21)OCOC(=O)C(C)(C)C
- EC50 (A2058 [4]): 51.3 µM
- Activity (A2058 [4]): Dose-dependent-effect

Source: ChEMBL document CHEMBL6096716, “Second-Generation Cap Analogue Prodrugs for Targeting Aberrant Eukaryotic Translation Initiation Factor 4E Activity in Cancer” (ACS Med Chem Lett, 2025)
